According to US9694073B2, “Small molecule inhibitors of polynucleotide kinase/phosphatase, poly(ADP-ribose) polymerase and uses thereof” (THE GOVERNORS OF THE UNIVERSITY OF ALBERTA, priority 2009, dated 2017):
“Also recorded” adds a separate entry of the source.

Key:
MDA-MB-231 cells = assay: Cell proliferation (MTS) assay, compound alone; assay type: cell-based, human; details: 72 hours
Experimental: (§1) To determine the effect of the inhibition of PNKP by small molecule inhibitors on cell proliferation we used the CellTiter 96™ AQueous Non-Radioactive Cell Proliferation Assay (Promega, Madison Wis.), better known as the MTS assay. Approximately 2.5×10^3 A549 cells were plated in triplicate in a 96-well plate with different concentration of A12B4C3. After 72 hours, 20 μl of CellTiter 96 Aqueous One Solution Reagent was added to each well and cells were incubated for 4 more hours at 37° C. The absorbance recorded at 490 nm was used as the number of living cells in culture (FLUOstar Optima, BMG Labtechnologies).
(§2) A12B4C3 was first tested for inherent toxicity. Cytotoxicity was measured by cell proliferation assay after exposure of A549 human lung adenocarcinoma cells and MDA-MB-231 cells to different doses of the compound for 72 hours (FIG. 6A). A dose-dependent reduction in cell proliferation up to 50% at 100 μM A12B4C3 was observed. […] While not wishing to be bound by theory, this may be indicative of a maximal level of drug uptake. No effect on cell proliferation was detected after exposure to 1 μM A12B4C3.

A549 cells [1] = assay: Cell proliferation (MTS) assay, compound alone; assay type: cell-based, human; details: 72 hours
Experimental: as §1, §2

PP-1cγ = target: T1, PP-1cγ (Homo sapiens, UniProt P36873); assay: PP-1cγ pNPP phosphatase assay; assay type: biochemical; details: concentration as high as 83.3 μM
T1 construct: made in house; host or cells: E. coli
Experimental: (§3) PP-1cγ and calcineurin activity was analyzed, using a colorimetric p-nitrophenol phosphate (pNPP) assay as previously described (33). The reaction were carried out in a 96-well microplate with a final volume of 60 μl containing 40 μl of pNPP assay buffer (50 mM Tris, pH 7.4, 0.1 mM EDTA, 30 mM MgCl2, 0.5 mM MnCl2, 1 mg/ml BSA, 0.2% β-mercaptoethanol), 0.03 μg PP-1cγ (specific activity>30 units per mg) or a catalytically equivalent quantity of calcineurin and 10 μl of 0.5 mM DNA 3′-phosphatase inhibitor sample in DMSO or 10 μl of 50 μM A12B4C3 sample in DMSO, or control solvent. After a 10-minute incubation at 37° C., 10 μl of 30 mM pNPP was added to each well and incubated for an additional of 60 minutes and 45 minutes for PP-1cγ and calcineurin, respectively.

A549 cells [2] = assay: Chemosensitization to camptothecin, clonogenic survival assay; assay type: cell-based, human; details: 1 mM A12B4C3 2 hours before camptothecin, further 24 hours, wild type A549
Experimental: The effect of hPNKP inhibition by A12B4C3 on cellular survival following exposure to the topoisomerase I poison, camptothecin, was measured in A549 and A549δPNKP cells by the clonogenic survival assay (colony forming assay). Cells were seeded on 60-mm tissue culture plates at various concentrations to give between about 100-1000 colonies per plate and returned to the incubator overnight to allow the cells to attach. For chemosensitization studies, the cells were incubated with or without 1 mM A12B4C3 for 2 hours before addition of camptothecin and then exposed to increasing doses of camptothecin (Sigma). After addition of the topoisomerase I poison, cells were incubated for a further 24 hours in the same media and then washed twice with phosphate-buffered saline (PBS) and incubated in fresh media without the inhibitor. Colonies were stained with crystal violet after 10 to 14 days and counted with an automated Colcount colony counter (Oxford Optronix, Oxford, UK).
The capacity of A12B4C3 to act as a chemosensitizer was then examined. […] Colonies were stained with crystal violet after 10 to 14 days and counted with an automated Colcount colony counter (Oxford Optronix, Oxford, UK).

[3] = tested on: DNA Polymerase β Dominant Negative (Pol β DN) A549 cells; assay: Synthetic lethality cell proliferation assay; assay type: cell-based, human; details: increasing concentrations, 72 hours
calcineurin = calcineurin (Rattus norvegicus, UniProt P63329); assay: Calcineurin pNPP phosphatase assay; assay type: biochemical; details: concentration as high as 83.3 μM
Experimental: as §3, with “respectively. The absorbance at 405 nm was measured using a SOFTmax 2.35 microplate reader (Molecular Devices, Sunnyvale, Calif.).” for “respectively.”

mouse PNKP = target: T2, mouse PNKP (Mus musculus, UniProt Q9JLV6); assay: PiColorLock 3'-phosphatase assay, mouse PNKP; assay type: biochemical; details: all concentrations tested (down to 5 μM)
T2 construct: made in house
Excerpt: To determine the specificity of A12B4C3 for human PNKP phosphatase activity, a number of closely related phosphatases such as the PNKP enzymes isolated from bacteriophage T4, Schizosaccharomyces pombe and mouse, as well as aprataxin, were examined.

[4] = Clonogenic survival assay, compound alone; assay type: cell-based; details: 1 μM, exposure up to 24 hours (data not shown)
Experimental: The effect of hPNKP inhibition by A12B4C3 on cellular survival following exposure to ionizing radiation was measured in A549, A549δPNKP and MDA-MB-231 and MDA-MB-231δPNKP cells by clonogenic assays. Cells were seeded on 60-mm tissue culture plates at various concentrations to give between about 100-1000 colonies per plate and returned to the incubator overnight to allow the cells to attach. For radiosensitization studies, the cells were incubated with or without 1 μM A12B4C3 for 2 hours before irradiation and then exposed to increasing doses of γ-radiation (^60Co Gammacell; Atomic Energy of Canada Limited, Ottawa). After irradiation, cells were incubated for a further 24 hours in the same media and then washed twice with phosphate-buffered saline (PBS) and incubated in fresh media without the inhibitor. Colonies were stained with crystal violet after 10 to 14 days and counted with an automated Colcount colony counter (Oxford Optronix, Oxford, UK).
A12B4C3 was first tested for inherent toxicity. Cytotoxicity was measured by cell proliferation assay after exposure of A549 human lung adenocarcinoma cells and MDA-MB-231 cells to different doses of the compound for 72 hours (FIG. 6A). A dose-dependent reduction in cell proliferation up to 50% at 100 μM A12B4C3 was observed. […] No effect on cell proliferation was detected after exposure to 1 μM A12B4C3.

T1 sequence (P36873 whole entry): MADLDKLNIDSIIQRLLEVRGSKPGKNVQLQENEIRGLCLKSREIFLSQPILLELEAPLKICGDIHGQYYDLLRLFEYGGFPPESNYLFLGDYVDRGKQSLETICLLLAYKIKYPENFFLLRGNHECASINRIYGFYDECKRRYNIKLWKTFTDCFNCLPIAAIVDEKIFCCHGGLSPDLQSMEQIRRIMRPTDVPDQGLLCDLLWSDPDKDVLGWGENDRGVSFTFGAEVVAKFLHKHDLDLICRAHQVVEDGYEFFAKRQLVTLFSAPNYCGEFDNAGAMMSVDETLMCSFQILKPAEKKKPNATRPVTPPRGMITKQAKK
T2 sequence (Q9JLV6 whole entry): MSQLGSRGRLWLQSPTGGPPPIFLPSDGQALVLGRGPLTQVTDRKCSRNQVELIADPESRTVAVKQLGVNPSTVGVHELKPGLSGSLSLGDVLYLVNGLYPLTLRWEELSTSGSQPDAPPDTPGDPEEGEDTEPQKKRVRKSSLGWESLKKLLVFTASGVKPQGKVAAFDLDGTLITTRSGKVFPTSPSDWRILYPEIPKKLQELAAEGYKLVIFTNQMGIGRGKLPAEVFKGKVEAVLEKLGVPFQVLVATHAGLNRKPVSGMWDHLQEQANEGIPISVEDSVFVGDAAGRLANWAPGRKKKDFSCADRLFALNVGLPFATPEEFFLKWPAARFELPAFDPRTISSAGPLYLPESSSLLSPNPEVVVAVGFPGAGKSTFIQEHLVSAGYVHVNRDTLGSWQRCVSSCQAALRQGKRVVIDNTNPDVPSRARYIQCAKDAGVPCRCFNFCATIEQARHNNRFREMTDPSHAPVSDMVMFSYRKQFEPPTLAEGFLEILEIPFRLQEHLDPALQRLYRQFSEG

Compound: CCCCCCCCCCC(O)C1C=CC2C(=O)N(c3ccccc3)C(=O)C2N1Nc1ccc([N+](=O)[O-])cc1 (stereo not shown) [Compound A12B4C3, 2-(1-hydroxyundecyl)-1-(4-nitrophenylamino)-6-phenyl-6,7a-dihydro-1H-pyrrolo[3,4-b]pyridine-5,7(2H,4aH)-dione]
- effect on cell proliferation (MDA-MB-231 cells; 1 μM): No effect
- reduction in cell proliferation (MDA-MB-231 cells; 100 μM): up to 50%
- effect on cell proliferation (A549 cells [1]; 1 μM): No effect
- reduction in cell proliferation (A549 cells [1]; 100 μM): up to 50%
- inhibition of PP-1γ (PP-1cγ): Neither enzyme displayed inhibition; also recorded: no inhibition
- chemosensitization to camptothecin (A549 cells [2]): effectively sensitized
- cell survival of Pol β DN cells [3]: reduced survival; also recorded: inverse relationship
- inhibition of calcineurin (calcineurin): Neither enzyme displayed inhibition; also recorded: no inhibition
- inhibition of mouse PNKP (mouse PNKP): significantly inhibited
- cytotoxicity by clonogenic survival assay [4]: lack of cytotoxicity
